Drawing on patent US7388025B2, “3-aryl-isoxazole-4-carbonyl-benzofuran derivatives” (Hoffman-La Roche Inc., priority 2005, dated 2008), this text covers Ki for nine compounds.

The experiment has as its target T1, human GABA A receptor α5β3γ2 (Homo sapiens, UniProt P18507+P31644).
T1 construct: expressed in transfected cells; host or cells: HEK293 cells, transiently transfected; membranes prepared from them
Nature of the experiment: [3H]flumazenil competition binding, HEK293 cells expressing human GABA A α5β3γ2 receptors. The conditions noted are these: human α5β3γ2 in HEK293 (transiently transfected), 0.5 nM [3H]flumazenil, mean of two determinations; read-out: Ki[nM] hα5. As for the experimental part:
Membrane Preparation and Binding Assay
The affinity of compounds at GABA A receptor subtypes was measured by competition for [3H]flumazenil (85 Ci/mmol; Roche) binding to HEK293 cells expressing rat (stably transfected) or human (transiently transfected) receptors of composition α1β3γ2, α2β3γ2, α3β3γ2 and α5β3γ2.
Cell pellets were suspended in Krebs-tris buffer (4.8 mM KCl, 1.2 mM CaCl2, 1.2 mM MgCl2, 120 mM NaCl, 15 mM Tris; pH 7.5; binding assay buffer), homogenized by polytron for ca. 20 sec on ice and centrifuged for 60 min at 4° C. (50000 g; Sorvall, rotor: SM24=20000 rpm). The cell pellets were resuspended in Krebs-tris buffer and homogenized by polytron for ca. 15 sec on ice. Protein was measured (Bradford method, Bio-Rad) and aliquots of 1 mL were prepared and stored at −80° C.
Radioligand binding assays were carried out in a volume of […] (96-well plates) which contained […] of cell memebranes, [3H]flumazenil at a concentration of 1 nM for α1, α2, α3 subunits and 0.5 nM for α5 subunits and the test compound in the range of […]. Nonspecific binding was defined by 10^−5 M diazepam and typically represented less than 5% of the total binding. Assays were incubated to equilibrium for 1 hour at 4° C. and harvested onto GF/C uni-filters (Packard) by filtration using a Packard harvester and washing with ice-cold wash buffer (50 mM Tris; pH 7.5). After drying, filter-retained radioactivity was detected by liquid scintillation counting. Ki values were calculated using Excel-Fit (Microsoft) and are the means of two determinations.
As for `COc1ccc2cc(C(=O)c3c(-c4ccc(Br)cc4)noc3C)oc2c1` [Example 41, [3-(4-Bromo-phenyl)-5-methyl-isoxazol-4-yl]-(6-methoxy-benzofuran-2-yl)-methanone], the Ki was found to be 3.1 nM.

With `Cc1onc(-c2ccc(Br)cc2)c1C(=O)c1cc2cccc(OC(C)C)c2o1` [Example 33, [3-(4-Bromo-phenyl)-5-methyl-isoxazol-4-yl]-(7-isopropoxy-benzofuran-2-yl)-methanone], the inhibitory constant (Ki) came out at 32.9 nM.

For the compound `COc1cccc2cc(C(=O)c3c(-c4ccc(Br)cc4)noc3C)oc12` [Example 31, [3-(4-Bromo-phenyl)-5-methyl-isoxazol-4-yl]-(7-methoxy-benzofuran-2-yl)-methanone], the inhibition constant (Ki) stood at 3.7 nM.

As to `Cc1onc(-c2ccccc2)c1C(=O)c1cc2cccc(Br)c2o1` [Example 3, (7-Bromo-benzofuran-2-yl)-(5-methyl-3-phenyl-isoxazol-4-yl)-methanone], the inhibition constant Ki came out at 7.5 nM.

With `Cc1onc(-c2ccccc2)c1C(=O)c1cc2cc(Cl)ccc2o1` [Example 19, (5-Chloro-benzofuran-2-yl)-(5-methyl-3-phenyl-isoxazol-4-yl)-methanone], the Ki was 20 nM.

Consider `Cc1onc(-c2ccccc2)c1C(=O)c1cc2cccc(OCc3cccnc3)c2o1` [Example 9, (5-Methyl-3-phenyl-isoxazol-4-yl)-[7-(pyridin-3-ylmethoxy)-benzofuran-2-yl]-methanone], for which the inhibition constant (Ki) was determined as 31.3 nM.

Turning to `CCOc1cccc2cc(C(=O)c3c(-c4ccc(Br)cc4)noc3C)oc12` [Example 32, [3-(4-Bromo-phenyl)-5-methyl-isoxazol-4-yl]-(7-ethoxy-benzofuran-2-yl)-methanone], the Ki amounted to 9.4 nM.

As to `Cc1onc(-c2ccccc2)c1C(=O)c1cc2cc(Br)ccc2o1` [Example 20, (5-Bromo-benzofuran-2-yl)-(5-methyl-3-phenyl-isoxazol-4-yl)-methanone], the Ki was determined as 41.6 nM.

As for `Cc1onc(-c2ccccc2)c1C(=O)c1cc2cccc(OCc3ncnn3C)c2o1` [Example 14, (5-Methyl-3-phenyl-isoxazol-4-yl)-[7-(2-methyl-2H-[1,2,4]triazol-3-ylmethoxy)-benzofuran-2-yl]-methanone], the inhibition constant Ki stood at 13.8 nM.
